Measurements: PMC8002452, “Molecular Basis of AmpC β-Lactamase Induction by Avibactam in Pseudomonas aeruginosa: PBP Occupancy, Live Cell Binding Dynamics and Impact on Resistant Clinical Isolates Harboring PDC-X Variants” (International Journal of Molecular Sciences, 2021)

Experiments:
[1] = tested on: ampC mRNA in 110-G8 (AmpC DelG229–E247; PDC-223, CAZ/AVI-resistant ST175 clinical isolate); assay: qRT-PCR quantification of AmpC induction; assay type: cell-based, P. aeruginosa; conditions: IPM 8, FOX 64, AVI 16 µg/mL, relative to strain basal t=0
Procedure: (§1) Samples were taken at 0, 30 and 180 min. Total RNA was extracted with the RNeasy Mini Kit (Qiagen, Hilden, Germany) and treated with TURBO DNase (Thermo Fisher Scientific, Waltham, MA, USA) to remove contaminating DNA. Samples were afterwards normalized to 50 ng/µL.
(§2) Normalized samples were then used for one-step reverse transcription and real-time PCR amplification using the QuantiTect SYBR green qRT-PCR kit (Qiagen, Hilden, Germany) in a CFX Connect Real-Time PCR System (Bio-Rad, Hercules, California, USA). Previously described primer pairs ACrnaF/ACrnaR and rpsL-1/rpsL-2 were used for the amplification of ampC and housekeeping gene rpsL, respectively. The mean values of relative mRNA expression (2^−ΔΔCt) obtained from at least two independent biological replicates and duplicate technical replicates were considered.

[2] = tested on: ampC mRNA in 109-E9 (CAZ/AVI-sensitive ST175 clinical isolate); assay: qRT-PCR quantification of AmpC induction; assay type: cell-based, P. aeruginosa; conditions: IPM 8, FOX 64, AVI 16 µg/mL, relative to strain basal t=0
Procedure: as §1, §2

[3] = tested on: ampC mRNA in 101-E5 (CAZ/AVI-sensitive ST175 clinical isolate); assay: qRT-PCR quantification of AmpC induction; assay type: cell-based, P. aeruginosa; conditions: IPM 8, FOX 64, AVI 16 µg/mL, relative to strain basal t=0
Procedure: as §1, §2

[4] = tested on: ampC mRNA in 103-H8 (AmpC E247K; PDC-221, CAZ/AVI-resistant ST175 clinical isolate); assay: qRT-PCR quantification of AmpC induction; assay type: cell-based, P. aeruginosa; conditions: IPM 8, FOX 64, AVI 16 µg/mL, relative to strain basal t=0
Procedure: as §1, §2

[5] = tested on: ampC mRNA in PAΔdacB (PBP4 knockout mutant); assay: qRT-PCR quantification of AmpC induction; assay type: cell-based, P. aeruginosa; conditions: 180 min; IPM 8, FOX 64 µg/mL
Procedure: as §1, §2

[6] = tested on: ampC mRNA in wild-type PAO1; assay: qRT-PCR quantification of AmpC induction; assay type: cell-based, P. aeruginosa; conditions: IPM 8, FOX 64, AVI 16 µg/mL, relative to strain basal t=0
Procedure: as §1, §2

PBP3 = target: T1, PBP3 (Pseudomonas aeruginosa, UniProt G3XD46); assay: biochemical; assay type: binding, P. aeruginosa PAO1; conditions: PAO1 membranes 0.5 mg/mL, 30 min, 25 µM bocillin FL; read-out: Mean IC50 ± SD, PBP 3 (converted)
T1 construct: PBP-containing membranes were isolated by ultracentrifugation; endogenous in cells; host or cells: P. aeruginosa PAO1 wild type (membrane preparations or intact cells)
T1 sequence (G3XD46 whole entry): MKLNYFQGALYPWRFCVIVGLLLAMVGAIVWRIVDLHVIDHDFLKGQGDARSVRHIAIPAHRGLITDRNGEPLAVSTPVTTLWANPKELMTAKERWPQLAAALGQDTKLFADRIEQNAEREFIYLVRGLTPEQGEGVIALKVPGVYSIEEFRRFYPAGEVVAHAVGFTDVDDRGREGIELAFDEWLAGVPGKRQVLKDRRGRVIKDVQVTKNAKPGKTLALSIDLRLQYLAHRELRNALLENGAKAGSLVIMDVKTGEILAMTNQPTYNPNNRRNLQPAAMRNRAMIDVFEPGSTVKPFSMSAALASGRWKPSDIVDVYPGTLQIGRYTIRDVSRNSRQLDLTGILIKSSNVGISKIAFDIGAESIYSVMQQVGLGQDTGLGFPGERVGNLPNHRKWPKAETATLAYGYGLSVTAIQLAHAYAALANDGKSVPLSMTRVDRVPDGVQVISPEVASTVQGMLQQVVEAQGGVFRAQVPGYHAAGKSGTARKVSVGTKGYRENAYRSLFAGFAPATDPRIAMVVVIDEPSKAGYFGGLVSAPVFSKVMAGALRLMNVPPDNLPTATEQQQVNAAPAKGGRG
Procedure: (§3) PBP-binding affinity was determined using previously described methods. Briefly, P. aeruginosa PAO1 cultures grown to the midexponential phase (7.6 log10 CFU/mL) were incubated in CAMHB at 37 °C and 180 rpm, washed and centrifuged (3220× g for 10 min at 4 °C). Bacterial pellets were washed in 30 mL of PBS buffer (pH 7.5), resuspended in 10 mL of PBS and sonicated at 40% amplitude for three 2 min bursts (while immersed in an ice bath) and centrifuged at 3220× g for 15 min at 4 °C. PBP-containing membranes were isolated by ultracentrifugation at 150,000× g for 30 min at 4 °C. Total protein concentrations were measured through the Bradford method.
(§4) Subsequently, the fluorescent penicillin bocillin FL was added to a 25 μM final concentration. Labeled PBPs were denatured and separated through 4–15% SDS–polyacrylamide gel electrophoresis. Labeled PBPs were visualized using a Typhoon FLA 9500 biomolecular imager (GE Healthcare Bio-Sciences AB, Uppsala, Sweden) (excitation at 488 nm and emission at 530 nm), and binding was determined from at least three independent experiments using ImageQuant TL software v8.1.0.0 (GE Healthcare Bio-Sciences AB, Uppsala, Sweden).

PBP4 = PBP4 (Pseudomonas aeruginosa, UniProt Q9HZG1); assay: PBP-binding affinity (IC50), bocillin FL, isolated membranes; parameters: species or system P. aeruginosa PAO1; conditions: PAO1 membranes 0.5 mg/mL, 30 min, 25 µM bocillin FL; read-out: Mean IC50 ± SD, PBP 4 (converted)
Chain of PBP4 (Q9HZG1 entry or part of it): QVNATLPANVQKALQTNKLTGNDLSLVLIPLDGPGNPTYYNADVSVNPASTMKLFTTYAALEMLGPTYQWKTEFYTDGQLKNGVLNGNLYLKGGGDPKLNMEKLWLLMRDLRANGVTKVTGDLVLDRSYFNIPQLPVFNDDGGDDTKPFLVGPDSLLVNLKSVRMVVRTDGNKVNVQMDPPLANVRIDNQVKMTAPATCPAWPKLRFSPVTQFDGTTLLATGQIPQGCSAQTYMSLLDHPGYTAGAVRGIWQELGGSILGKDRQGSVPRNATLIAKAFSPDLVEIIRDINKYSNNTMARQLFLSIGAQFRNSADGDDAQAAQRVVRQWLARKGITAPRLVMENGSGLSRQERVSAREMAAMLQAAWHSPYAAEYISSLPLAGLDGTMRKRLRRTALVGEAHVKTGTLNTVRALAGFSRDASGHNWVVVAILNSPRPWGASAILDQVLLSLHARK
Procedure: as §3, §4

PBP2 = target: T2, PBP2 (Pseudomonas aeruginosa, UniProt Q9X6V3); assay: as above; parameters: species or system P. aeruginosa PAO1; conditions: PAO1 membranes 0.5 mg/mL, 30 min, 25 µM bocillin FL; read-out: Mean IC50 ± SD, PBP 2 (converted)
T2 construct: PBP-containing membranes were isolated by ultracentrifugation; endogenous in cells; host or cells: P. aeruginosa PAO1 wild type (membrane preparations or intact cells)
T2 sequence (Q9X6V3 entry or part of it): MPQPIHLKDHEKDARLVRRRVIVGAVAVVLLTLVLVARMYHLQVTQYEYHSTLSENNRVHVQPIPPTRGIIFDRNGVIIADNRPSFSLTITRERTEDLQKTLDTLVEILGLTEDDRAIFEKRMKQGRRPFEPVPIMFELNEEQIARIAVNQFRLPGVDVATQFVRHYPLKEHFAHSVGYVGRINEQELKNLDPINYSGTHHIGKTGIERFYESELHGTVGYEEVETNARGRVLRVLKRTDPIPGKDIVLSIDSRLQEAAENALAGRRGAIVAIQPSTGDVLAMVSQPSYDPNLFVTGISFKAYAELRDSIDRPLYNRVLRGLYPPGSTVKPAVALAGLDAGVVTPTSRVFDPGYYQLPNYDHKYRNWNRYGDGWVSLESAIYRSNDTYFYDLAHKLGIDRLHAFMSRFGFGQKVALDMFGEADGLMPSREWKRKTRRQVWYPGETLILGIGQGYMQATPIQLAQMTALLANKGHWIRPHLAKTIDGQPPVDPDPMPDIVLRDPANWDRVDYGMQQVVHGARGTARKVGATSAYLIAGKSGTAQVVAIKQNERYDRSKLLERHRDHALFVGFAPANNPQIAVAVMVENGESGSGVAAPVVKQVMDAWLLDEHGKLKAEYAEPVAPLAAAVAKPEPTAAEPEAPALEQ
Procedure: as §3, §4

PBP5/6 = PBP5/6 (Pseudomonas aeruginosa, UniProt G3XD74); assay: as above; parameters: species or system P. aeruginosa PAO1; conditions: PAO1 membranes 0.5 mg/mL, 30 min, 25 µM bocillin FL; read-out: Mean IC50 ± SD, PBP 5/6 (converted)
Chain of PBP5/6 (G3XD74 entry or part of it): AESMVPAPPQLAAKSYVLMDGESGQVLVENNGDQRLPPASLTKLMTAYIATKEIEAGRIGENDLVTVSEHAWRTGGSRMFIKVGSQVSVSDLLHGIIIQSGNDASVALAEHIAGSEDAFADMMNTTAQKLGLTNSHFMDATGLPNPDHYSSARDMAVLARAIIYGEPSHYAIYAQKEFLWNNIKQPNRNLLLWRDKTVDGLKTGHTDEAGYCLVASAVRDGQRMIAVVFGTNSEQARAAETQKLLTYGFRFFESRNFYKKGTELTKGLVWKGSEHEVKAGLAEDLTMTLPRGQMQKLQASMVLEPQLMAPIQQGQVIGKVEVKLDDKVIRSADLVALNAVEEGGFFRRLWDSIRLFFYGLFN
Procedure: as §3, §4

PBP1b = PBP1b (Pseudomonas aeruginosa, UniProt G3XD31); assay: as above; parameters: species or system P. aeruginosa PAO1; conditions: PAO1 membranes 0.5 mg/mL, 30 min, 25 µM bocillin FL
Chain of PBP1b (G3XD31 entry or part of it): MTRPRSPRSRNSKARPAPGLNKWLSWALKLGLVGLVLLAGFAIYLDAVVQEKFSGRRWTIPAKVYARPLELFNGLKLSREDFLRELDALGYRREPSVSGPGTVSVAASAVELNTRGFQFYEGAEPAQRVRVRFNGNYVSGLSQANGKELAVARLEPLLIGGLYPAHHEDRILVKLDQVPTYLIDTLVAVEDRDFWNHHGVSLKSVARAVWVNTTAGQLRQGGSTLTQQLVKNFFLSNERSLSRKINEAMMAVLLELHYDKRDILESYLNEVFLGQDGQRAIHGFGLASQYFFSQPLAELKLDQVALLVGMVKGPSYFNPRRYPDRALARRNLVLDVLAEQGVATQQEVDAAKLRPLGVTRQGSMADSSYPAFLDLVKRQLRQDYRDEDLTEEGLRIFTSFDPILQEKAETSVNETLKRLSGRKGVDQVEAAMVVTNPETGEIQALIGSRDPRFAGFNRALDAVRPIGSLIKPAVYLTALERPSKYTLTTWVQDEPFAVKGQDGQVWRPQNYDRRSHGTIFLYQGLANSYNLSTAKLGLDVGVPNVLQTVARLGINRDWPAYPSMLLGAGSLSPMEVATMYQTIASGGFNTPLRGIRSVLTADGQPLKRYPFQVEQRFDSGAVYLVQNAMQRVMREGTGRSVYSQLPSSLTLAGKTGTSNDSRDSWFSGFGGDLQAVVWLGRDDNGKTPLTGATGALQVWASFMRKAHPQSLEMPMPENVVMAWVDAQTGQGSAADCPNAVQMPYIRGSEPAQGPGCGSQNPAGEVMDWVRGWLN
Procedure: as §3, §4

PBP1a = target: T3, PBP1a (Pseudomonas aeruginosa, UniProt Q07806); assay: as above; parameters: species or system P. aeruginosa PAO1; conditions: PAO1 membranes 0.5 mg/mL, 30 min, 25 µM bocillin FL; read-out: Mean IC50 ± SD, PBP 1a (converted)
T3 construct: PBP-containing membranes were isolated by ultracentrifugation; endogenous in cells; host or cells: P. aeruginosa PAO1 wild type (membrane preparations or intact cells)
T3 sequence (Q07806 whole entry): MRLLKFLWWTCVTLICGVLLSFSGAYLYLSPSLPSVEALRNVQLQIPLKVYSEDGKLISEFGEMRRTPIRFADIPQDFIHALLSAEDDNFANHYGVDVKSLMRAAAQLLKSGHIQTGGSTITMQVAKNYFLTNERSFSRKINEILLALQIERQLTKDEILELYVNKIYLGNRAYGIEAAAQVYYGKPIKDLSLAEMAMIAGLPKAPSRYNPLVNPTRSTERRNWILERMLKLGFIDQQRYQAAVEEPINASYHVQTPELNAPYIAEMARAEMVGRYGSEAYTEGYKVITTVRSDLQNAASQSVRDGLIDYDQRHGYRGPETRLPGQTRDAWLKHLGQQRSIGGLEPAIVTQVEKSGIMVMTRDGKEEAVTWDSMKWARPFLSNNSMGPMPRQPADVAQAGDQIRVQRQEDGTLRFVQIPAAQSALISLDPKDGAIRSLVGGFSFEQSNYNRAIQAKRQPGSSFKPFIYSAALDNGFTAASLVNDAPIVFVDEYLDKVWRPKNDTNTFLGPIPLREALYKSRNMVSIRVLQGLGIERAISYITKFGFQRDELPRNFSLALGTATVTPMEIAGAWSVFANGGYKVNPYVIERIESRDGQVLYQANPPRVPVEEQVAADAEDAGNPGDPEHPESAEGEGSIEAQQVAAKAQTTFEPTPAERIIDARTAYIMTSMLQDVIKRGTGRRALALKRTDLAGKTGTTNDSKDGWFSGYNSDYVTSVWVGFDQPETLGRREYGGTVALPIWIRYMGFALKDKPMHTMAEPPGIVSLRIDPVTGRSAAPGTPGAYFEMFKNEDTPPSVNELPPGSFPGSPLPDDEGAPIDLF
Procedure: as §3, §4

## CO[C@@]1(NC(=O)Cc2cccs2)C(=O)N2C(C(=O)O)=C(COC(N)=O)CS[C@@H]21 [Cefoxitin]
[1]; 110-G8, 0 min
  Relative ampC expression: 3.3
[1]; 110-G8, 30 min
  Relative ampC expression: 51.8 ± 13.2
[1]; 110-G8, 30 min, listed as FOX
  Relative ampC expression: 51.8
[1]; 110-G8, 180 min
  Relative ampC expression: 29.2 ± 13.1
[1]; 110-G8, 180 min, listed as FOX
  Relative ampC expression: 29.2
[2]; 109-E9, 0 min
  Relative ampC expression: 0.9
[2]; 109-E9, 30 min
  Relative ampC expression: 4.1
[2]; 109-E9, 180 min
  Relative ampC expression: 8.8 ± 7.9
[2]; 109-E9, 180 min, listed as FOX
  Relative ampC expression: 8.8
[3]; 101-E5, 0 min
  Relative ampC expression: 3.7
[3]; 101-E5, 30 min
  Relative ampC expression: 1.7
[3]; 101-E5, 180 min
  Relative ampC expression: 5.7 ± 2.8
[3]; 101-E5, 180 min, listed as FOX
  Relative ampC expression: 5.7
[4]; 103-H8, 0 min
  Relative ampC expression: 1.4
[4]; 103-H8, 30 min
  Relative ampC expression: 14.0
[4]; 103-H8, 180 min
  Relative ampC expression: 50 ± 36.5
[4]; 103-H8, 180 min, listed as FOX
  Relative ampC expression: 50.0
[5]
  ampC inducibility of PBP4 (dacB) mutant, fold lower than parental strain PAO1: 32 fold
[6]; PAO1, 0 min
  Relative ampC expression: 0.9
[6]; PAO1, 30 min
  Relative ampC expression: 3100
[6]; PAO1, 180 min
  Relative ampC expression: 2500
PBP3
  IC50: 25 µM
PBP4
  IC50: 3.51 µM
PBP2
  IC50: 34.2 µM
PBP5/6
  IC50: 21.1 µM
PBP1b
  Mean IC50 ± SD, PBP 1b: no PBP1b binding was detected
PBP1b; read-out: Mean IC50 ± SD, PBP 1b (converted)
  IC50: > 74.9 µM
PBP1a
  IC50: 18.2 µM

## C[C@@H](O)[C@H]1C(=O)N2C(C(=O)O)=C(SCCN=CN)C[C@H]12 [Imipenem]
PBP2
  IC50: < 0.835 µM
PBP5/6
  IC50: 1.67 µM
PBP1a
  IC50: < 0.835 µM
